Reference: patent publication US11801235B2, “Methods and compositions for delivery of biotin to mitochondria” (priority 2020, dated 2023)
Square brackets hold non-standard residues; d marks the D form. Peptide text beside a SMILES is read from it. * marks the point of attachment. Biotin = O=C1N[C@H]2[C@H](CS[C@H]2CCCCC(=O)*)N1; Dmt = Cc1cc(O)cc(C)c1C[C@H](N)C(=O)O

Tests used:
[1] = test system: ARPE-19 human retinal pigment epithelial cells; assay: Mitochondrial localization: co-localization with cytochrome c oxidase subunit 4 (COX4); assay type: cell-based; conditions: ARPE-19 cells, 1 uM, 2 hours, serum-free DMEM/F12
Experimental: Cells were fixed with 4% PFA at RT for 10 min and then permeabilized with 0.1% Triton X-100 at RT for 10 min. Cells were blocked with 2% BSA (bovine serum albumin) at RT for 30 min, and then incubated with primary antibody for cytochrome c oxidase subunit 4 (COX4), a major protein complex expressed on the inner mitochondrial membrane. The rabbit polyclonal COX4 antibody (Invitrogen PAS-29992, Waltham, MA) was used at 1:500 dilution in 2% BSA at 4° C. overnight.

[2] = test system: ARPE-19 human retinal pigment epithelial cell monolayers; assay: Cell proliferation at scratch edge (PCNA staining); assay type: cell-based; conditions: ARPE-19 cells, 10 nM, serum-free, 24 hours after scratch
From the text: (§1) Re-epithelialization of a wound area require proliferation of cells at the wound edge, which can be impaired in most wounds due to lack of blood flow to deliver nutrients and/or growth factor(s) that can be necessary for cell proliferation. Cell proliferation in the wound edge can be monitored by proliferating cell nuclear antigen (PCNA) staining. To mimic the microenvironment of wounds in vitro, serum-free medium was used for the scratch assay in cell cultures.
(§2) Proliferating cells were identified by immunostaining with antibody to proliferating cell nuclear antigen (PCNA) according to standard procedures as presented in IHC World. PCNA staining was performed using the same plate of cells after determination of scratch area. […] All cell nuclei stain blue with Hoechst, but nuclei of proliferating cells stain red. The number of proliferating cells per field was quantified by the intensity of red nuclear stain and normalized to intensity of blue nuclear stain (determined by Nikon NIS-Elements Imaging Software).

[3] = test system: HK-2 cells; assay: Cellular ATP in extreme starvation model (serum-free 5% DMEM in PBS, 3 days); assay type: cell-based, human; conditions: 10 nM
Experimental: ATP was measured using the ApoSENSOR ATP Bioluminescence Assay Kit (BioVision) according to manufacturer's protocol. This kit utilizes luciferase to catalyze the formation of light from ATP and luciferin. Briefly, cells were treated with 100 ul of Nuclear Releasing Buffer for 5 min at RT with gentle shaking. 10 ul of ATP Monitoring Enzyme was added to cell lysate, and luminescence was measured using a microplate reader (SpectraMax iD3, Molecular Device). ATP levels were normalized to the serum-free DMEM control group (arbitrarily set to 1.0).
The second model uses an extreme starvation model whereby HK-2 cells were cultured in 96-well plates in serum-free 5% DMEM in PBS (phosphate-buffered saline) for 3 days. Cells were treated with 10 nM free biotin or peptide-conjugated biotin molecules. All treatments were carried out with N=6 in each experiment.

[4] = test system: HK-2 cells; assay: Cell viability (Alamar Blue) after 11 days of serum starvation; assay type: cell-based, human; conditions: 10 nM, vs serum-free control
Experimental: In the first model, HK-2 cells were cultured in 96-well plates in serum-free DMEM alone or in serum-free DMEM containing 10 nM of SPN11 or SPN12 for 11 days. Culture medium was replaced every 3 days.
(§3) Cell viability was measured using the Alamar Blue Cell Proliferation Assay (Bio-Rad), according to manufacturer's protocol. Alamar Blue uses resazurin to measure reducing power of living cells. The weakly fluorescent resazurin is reduced to the highly fluorescent resorufin when reduced by cellular metabolism. Briefly, alamar blue reagent (10 ul) was added to the culture medium and incubated for 1 h at 37° C. Fluorescence from resorufin (Ex/Em 530/590 nm) was detected using a microplate reader (SpectraMax iD3, Molecular Devices).

[5] = test system: HK-2 human renal epithelial cell monolayers; assay: Cell proliferation at scratch edge (PCNA staining); assay type: cell-based; conditions: HK-2 cells, 10 nM, serum-free, 24 hours after scratch; for number of proliferating cells normalized to all nuclei, FIG. 21: compared to control or biotin
From the text: as §1, §2

[6] = test system: HK-2 cells; assay: Mitochondrial potential (TMRM) of cells at the scratch edge; assay type: cell-based, human; conditions: 10 nM, serum-free, 24 hours after scratch; for mitochondrial potential (red fluorescence) normalized to nuclear number, FIG. 25: compared to control
From the text: Rapidly dividing cells can need ATP to support the synthesis of important building blocks. Tissue injury can cause rapid mitochondrial depolarization that compromises ATP production and/or results in cell death. The loss of ATP can further impair cell proliferation and/or tissue repair. Mitochondrial potential can be monitored in the cells at the edge of the scratch area using the cell-permeable potential-dependent dye TMRM (tetramethylrhodamine methyl ester). TMRM can accumulate in negatively charged polarized mitochondria and can be detected as red fluorescence. To mimic the microenvironment of wounds in vitro, serum-free medium was used in the scratch assay. […] HK-2 cells were then incubated with 5 nM TMRM in DMEM without phenol red and incubated for 30 min. Cells were then covered with live cell image buffer and imaged using Nikon Eclipse Ti2 fluorescent microscope (20× objective).

[7] = test system: HK-2 cells; assay: In vitro scratch assay (scratch area); assay type: cell-based, human; conditions: 10 nM; for scratch area after 24 hours, microscopic images FIG. 15: serum-free DMEM, 24 hours after mechanical scratch; for closure of the scratch area compared to control, FIG. 16 and FIG. 17 / effectiveness in reducing scratch area compared to free biotin, FIG. 16 and FIG. 17: serum-free, 24 hours
Experimental: (§4) Certain exemplary peptide-conjugated biotin molecules can accelerate wound healing in cell cultures. The in vitro scratch assay is an easy and well-developed method to measure cell proliferation and migration over a “wound area” in vitro. This assay involves creating a “scratch” in a cell monolayer with a pipette tip and then examining the rate at which cells proliferate and migrate to close the scratch.
3×10^5 cells were plated per well in 6-well plates in DMEM at 37° C. in a humidified incubator with 5% CO2 for one day prior to the experiment. To mimic the microenvironment of wounds in vitro, serum-free medium was used in the scratch assay. On the day of the scratch assay, the medium was replaced with serum-free DMEM, and a line scraped across the cell monolayer using a p1000 pipette tip. Cells were washed to remove cell debris and replaced with DMEM alone (control), or DMEM containing 10 nM biotin or peptide-conjugated biotin molecules.
(§5) The scratch area was examined immediately (day 0) using a Nikon Eclipse Ti2 fluorescence microscope. Six different field were captured for each sample using 4×objective. The scratch area (cell-free zone) was calculated using ImageJ software, an open-source Java image processing program inspired by NIH Image (National Institute of Health). The scratch area was re-examined after 24 hours (day 1), and the area was normalized to the area determined on day 0 for the same sample. All results were calculated as change from no-treatment control and averaged for the six fields.

[8] = test system: ARPE-19 human retinal pigment epithelial cells; assay: Biotin uptake by streptavidin-Alexa Fluor 594 fluorescence in ARPE-19 cells; conditions: 1 uM, 1-hour incubation, serum-free
Experimental: Cellular uptake and localization of peptide-conjugated biotin molecules were determined in HK-2 human renal epithelial cells and ARPE-19 human retinal pigment epithelial cells (ATCC, Manassas, VA). HK-2 cells were cultured in Dulbecco's Modified Eagle's Medium (DMEM) containing 1 g/L glucose and 10% fetal bovine serum (FBS), 100 units/ml penicillin and 100 ug/ml streptomycin. ARPE-19 cells were cultured in DMEM/F12 medium containing 1 g/L glucose and 10% fetal bovine serum (FBS), 100 units/ml penicillin and 100 ug/ml streptomycin. Cells were incubated in humidified incubator with 5% CO2 at 37° C. HK-2 cells and ARPE-19 cells were seeded in 35 mm dish at an initial density of 5×10^4 cells. FBS was removed from the culture medium for 3 days to deplete endogenous biotin in the cells. […]
Biotin uptake was determined using Streptavidin binding. […] By using Alexa Fluor 594-conjugated streptavidin, it is possible to visualize biotin uptake using fluorescence microscopy. […] Live cell image buffer was added and Alexa-594 fluorescence (Ex/Em=591/614 nm) and Hoechst fluorescence ([…]) was observed using the Nikon Eclipse Ti2 fluorescence microscope (100×oil objective). Ten random fields from each sample were quantified by NIS-Elements Imaging Software (Nikon) for streptavidin fluorescence and normalized to Hoechst fluorescence to account for number of cells per field.

[9] = test system: ARPE-19 cells; assay: In vitro scratch assay (scratch area); assay type: cell-based, human
From the text: as §4, §5

[10] = test system: ARPE-19 cells; assay: Cell number and viability after 30 days of serum deprivation; assay type: cell-based, human; conditions: 10 nM
Experimental: as §3
In the second model, ARPE-19 cells were grown in serum-free DMEM in the absence or presence of peptide-conjugated biotin molecules for 30 days. Serum-free media was supplemented with 10 nM of SPN12, SPN15 or SPN16 compounds (all at 10 nM) was replaced every 3 days. Culture medium was replaced every 3 days.

Cc1cc(O)cc(C)c1C[C@H](NC(=O)[C@@H](CCCNC(=N)N)NC(=O)CCCC[C@@H]1SC[C@@H]2NC(=O)N[C@@H]21)C(=O)N[C@@H](CCCCN)C(=O)N[C@@H](Cc1ccccc1)C(N)=O [SPN05, D-Biotin-D-Arg-L-(2′6′-dimethylTyr)-L-Lys-L-Phe-NH2] (Biotin-[dR][Dmt]KF-NH2)
co-localization of biotin staining with COX4 staining (inner mitochondrial membrane), FIG. 6 [1]: co-localization

N=C(N)NCCC[C@@H](NC(=O)[C@@H](Cc1c[nH]c2ccccc12)NC(=O)CCCC[C@@H]1SC[C@@H]2NC(=O)N[C@@H]21)C(=O)N[C@H](Cc1c[nH]c2ccccc12)C(=O)N[C@H](CCCCN)C(=O)O [SPN08, D-Biotin-D-Trp-D-Arg-D-Trp-D-Lys-OH] (Biotin-[dW][dR][dW][dK]-OH)
number of proliferating (PCNA-positive) cells at the edge of the scratch, images FIG. 22 [2]: increased the number of proliferating cells

N=C(N)NCCC[C@@H](NC(=O)[C@H](N)Cc1c[nH]c2ccccc12)C(=O)N[C@H](Cc1c[nH]c2ccccc12)C(=O)N[C@H](CCCCNC(=O)CCCC[C@@H]1SC[C@@H]2NC(=O)N[C@@H]21)C(=O)O [SPN09, D-Trp-D-Arg-D-Trp-D-Lys(biotinyl)-OH] (H-[dW][dR][dW][dK](Biotin)-OH; N-terminus assumed)
number of proliferating (PCNA-positive) cells at the edge of the scratch, images FIG. 22 [2]: increased the number of proliferating cells

N=C(N)NCCC[C@H](NC(=O)[C@@H](N)Cc1c[nH]c2ccccc12)C(=O)N[C@@H](Cc1c[nH]c2ccccc12)C(=O)N[C@@H](CCCCNC(=O)CCCC[C@@H]1SC[C@@H]2NC(=O)N[C@@H]21)C(N)=O [SPN11, L-Trp-L-Arg-L-Trp-L-Lys(biotinyl)-NH2] (H-WRWK(Biotin)-NH2; N-terminus assumed)
ATP content compared to free biotin under extreme starvation, FIG. 12 [3]: doubling | improvement of cell viability in the absence of serum, FIG. 7 [4]: 35% | number of proliferating (PCNA-positive) cells at the edge of the scratch, images FIG. 22 [2]: increased the number of proliferating cells | number of proliferating cells normalized to all nuclei, FIG. 21 [5]: doubled | number of proliferating (PCNA-positive) cells at the edge of the scratch, images FIG. 20 ([5]; compared to free biotin): increased the number of proliferating cells | number of cells with good mitochondrial potential (TMRM) at scratch edge, images FIG. 24 [6]: increased the number of cells with good mitochondrial potential | mitochondrial potential (red fluorescence) normalized to nuclear number, FIG. 25 [6]: significantly increased mitochondrial potential | scratch area after 24 hours, microscopic images FIG. 15 [7]: almost completely closed | closure of the scratch area compared to control, FIG. 16 and FIG. 17 [7]: significantly accelerated the closure of the scratch area | effectiveness in reducing scratch area compared to free biotin, FIG. 16 and FIG. 17 [7]: twice as effective

N=C(N)NCCC[C@@H](NC(=O)CCCC[C@@H]1SC[C@@H]2NC(=O)N[C@@H]21)C(=O)N[C@@H](Cc1ccc(O)cc1)C(=O)N[C@H](CCCNC(=N)N)C(=O)N[C@@H](Cc1ccccc1)C(=O)N[C@@H](CCCCNC(=O)CCCC[C@@H]1SC[C@@H]2NC(=O)N[C@@H]21)C(N)=O [SPN16, D-Biotin-D-Arg-L-Tyr-D-Arg-L-Phe-L-Lys(biotinyl)-NH2] (Biotin-[dR]Y[dR]FK(Biotin)-NH2)
intracellular streptavidin staining (cellular uptake of biotin), microscopic images FIG. 4 [8]: intense red staining with a perinuclear distribution | wound healing (scratch closure), FIG. 18 [9]: accelerated wound healing | cell viability after serum deprivation compared to control, FIG. 9 ([10]; 30 days of serum deprivation): doubled | cell number after prolonged serum deprivation, microscopic images FIG. 8 ([10]; 30 days serum-free): increased cell number | closure of the scratch area compared to control, FIG. 16 and FIG. 17 [7]: significantly accelerated the closure of the scratch area | effectiveness in reducing scratch area compared to free biotin, FIG. 16 and FIG. 17 [7]: three times more effective

O=C(O)CCCC[C@@H]1SC[C@@H]2NC(=O)N[C@@H]21 [biotin]
number of proliferating (PCNA-positive) cells at the edge of the scratch, images FIG. 22 [2]: no effect | increase of the percent of proliferating cells at the edge of the scratch, FIG. 23 ([2]; compared to control): without effect | number of proliferating cells normalized to all nuclei, FIG. 21 [5]: small and did not reach statistical significance | number of cells with good mitochondrial potential (TMRM) at scratch edge, images FIG. 24 [6]: no effect | mitochondrial potential (red fluorescence) normalized to nuclear number, FIG. 25 [6]: did not reach statistical significance | scratch area after 24 hours, microscopic images FIG. 15 [7]: small effect on reducing scratch area | closure of the scratch area compared to control, FIG. 16 and FIG. 17 [7]: significantly accelerated the closure of the scratch area
